The values below come from patent US20250051361A1, “5,6,7,8-TETRAHYDRO-2,6-NAPHTHYRIDINE DERIVATIVES AS CANCER THERAPEUTICS” (VRise Therapeutics, Inc., priority 2021, published 2025).

Structures are written as SMILES. Counter-ions that a name gives are not always drawn. A value given as a limit tells only on which side of the number the result lay.

In one test the test system is AGS cells. The test can be described thus: In vitro cell proliferation assay in AGS cell line. The conditions noted are these: Homo sapiens; for inhibition at 3 µM: TC1: Test Concentration of 3 uM; for inhibition at 10 µM: TC2: Test Concentration of 10 uM. The class given is cell-based. Here is the method:
(§1) Test 1: In Vitro Cell Proliferation Assay in HPAC and AGS Cell Lines
(§2) Growth inhibition assays was carried out using 10% FBS supplemented media. Cells are to be seeded at a concentration of 2000-3,000 cells/well in a 96-well plate. Test compounds at a concentration range from 0.1 to 30 uM will be added after 24 hours. Growth will be assessed using the MTT or CCK-8 kit for measuring reduction at 0 h (prior to the addition of the test compound) and 72 to 96 hours after the addition of test compound. Absorbance read on a BIO-RAD iMark Microplate or any equivalent micloplate reader at a wavelength of 450 nm to 600 nm. Data will be analyzed and percent inhibition due to the test compound compared to the control is calculated accordingly.

The subject of the next test is HPAC cells. The test can be described thus: In vitro cell proliferation assay in HPAC cell line. The class given is cell-based. Particulars: for inhibition at 3 µM / inhibition at 10 µM: Homo sapiens; for inhibition at 3 µM / % Inhibition of Cell Proliferation HPAC TC1: TC1: Test Concentration of 3 uM; for inhibition at 10 µM: TC2: Test Concentration of 10 uM; for % Inhibition of Cell Proliferation HPAC TC1: 3 µM. As for the experimental part:
as §1, §2

For the compound `CN1CCC[C@H]1COc1nc(N2[C@@H]3CC[C@H]2CN(C(=O)OC(C)(C)C)C3)c2c(c1C#N)CN(c1cc(O)cc3ccccc13)CC2` [Ex 4, tert-butyl (1R,5S)-8-(4-cyano-6-(3-hydroxynaphthalen-1-yl)-3-(((S)-1-methylpyrrolidin-2-yl)methoxy)-5,6,7,8-tetrahydro-2,6-naphthyridin-1-yl)-3,8-diazabicyclo[3.2.1]octane-3-carboxylate], in the test with AGS cells, the inhibition at 3 µM is 75 to 100% and the inhibition at 10 µM is 75 to 100%.

In the test on HPAC cells, `CC(C)[C@@H](NC(=O)OC(C)(C)C)C(=O)N1CCN(c2nc(OC[C@@H]3CCCN3C)c(C#N)c3c2CCN(Cc2ccccc2)C3)CC1` [Ex 20, tert-butyl ((R)-1-(4-(6-benzyl-4-cyano-3-(((S)-1-methylpyrrolidin-2-yl)methoxy)-5,6,7,8-tetrahydro-2,6-naphthyridin-1-yl)piperazin-1-yl)-3-methyl-1-oxobutan-2-yl)carbamate] had an inhibition at 3 µM of no more than 25% and an inhibition at 10 µM of 25 to 50%.

In the test on AGS cells, `CN1CCC[C@H]1COc1nc(N2[C@@H]3CC[C@H]2CNC3)c2c(c1C#N)CN(c1cc(O)cc3ccccc13)CC2` [Ex 5, 1-((1R,5S)-3,8-diazabicyclo[3.2.1]octan-8-yl)-6-(3-hydroxynaphthalen-1-yl)-3-(((S)-1-methylpyrrolidin-2-yl)methoxy)-5,6,7,8-tetrahydro-2,6-naphthyridine-4-carbonitrile Hydrochloride] came in with an inhibition at 3 µM of 25 to 50% and an inhibition at 10 µM of 75 to 100%.

For `C#Cc1cccc2cccc(N3CCc4c(N5[C@@H]6CC[C@H]5CNC6)nc(OCC56CCCN5CCC6)c(C#N)c4C3)c12` [Ex 8, 1-((1R,5S)-3,8-diazabicyclo[3.2.1]octan-8-yl)-6-(8-ethynylnaphthalen-1-yl)-3-((tetrahydro-1H-pyrrolizin-7a(5H)-yl)methoxy)-5,6,7,8-tetrahydro-2,6-naphthyridine-4-carbonitrile TFA Salt], in the test with HPAC cells, the inhibition at 10 µM was 50 to 75%. Besides, the “% Inhibition of Cell Proliferation HPAC TC1” value in the test on HPAC cells (TFA Salt) is listed as “A (A = ≤25%)”.

Regarding `C#Cc1cccc2cc(O)cc(N3CCc4c(N5[C@@H]6CC[C@H]5CNC6)nc(OCC56CCCN5CCC6)c(C#N)c4C3)c12` [Ex 14, 1-((1R,5S)-3,8-diazabicyclo[3.2.1]octan-8-yl)-6-(8-ethynyl-3-hydroxynaphthalen-1-yl)-3-((tetrahydro-1H-pyrrolizin-7a(5H)-yl)methoxy)-5,6,7,8-tetrahydro-2,6-naphthyridine-4-carbonitrile Hydrochloride], in the test on HPAC cells, the inhibition at 3 µM was no more than 25% and the inhibition at 10 µM lay in the range of 50 to 75%.

In the test on HPAC cells, `N#Cc1c(OCC23CCCN2CCC3)nc(N2[C@@H]3CC[C@H]2CNC3)c2c1CN(c1cc(O)cc3cccc(Br)c13)CC2` [Ex 9, 1-((1R,5S)-3,8-diazabicyclo[3.2.1]octan-8-yl)-6-(8-bromo-3-hydroxynaphthalen-1-yl)-3-((tetrahydro-1H-pyrrolizin-7a(5H)-yl)methoxy)-5,6,7,8-tetrahydro-2,6-naphthyridine-4-carbonitrile Hydrochloride] registered an inhibition at 3 µM of no more than 25% and an inhibition at 10 µM of 75 to 100%.

In the test on HPAC cells, `CC(C)[C@@H](N)C(=O)N1CCN(c2nc(OC[C@@H]3CCCN3C)c(C#N)c3c2CCN(Cc2ccccc2)C3)CC1` [Ex 21, 1-(4-(D-valyl)piperazin-1-yl)-6-benzyl-3-(((S)-1-methylpyrrolidin-2-yl)methoxy)-5,6,7,8-tetrahydro-2,6-naphthyridine-4-carbonitrile Hydrochloride] displayed an inhibition at 3 µM of no more than 25% and an inhibition at 10 µM of no more than 25%.

In the test on HPAC cells, `CN1CCC[C@H]1COc1nc(N2[C@@H]3CC[C@H]2CNC3)c2c(c1C#N)CN(c1cc(O)cc3cccc(Br)c13)CC2` [Ex 15, 1-((1R,5S)-3,8-diazabicyclo[3.2.1]octan-8-yl)-6-(8-bromo-3-hydroxynaphthalen-1-yl)-3-(((S)-1-methylpyrrolidin-2-yl)methoxy)-5,6,7,8-tetrahydro-2,6-naphthyridine-4-carbonitrile Hydrochloride] yielded an inhibition at 3 µM of no more than 25% and an inhibition at 10 µM of 75 to 100%.

As for `C[C@H]1CNCCN1c1nc(OCC2CCCN2C)c(C#N)c2c1CCN(Cc1ccccc1)C2` (stereo partly drawn) [Ex 75, 6-benzyl-1-((S)-2-methylpiperazin-1-yl)-3-((1-methylpyrrolidin-2-yl)methoxy)-5,6,7,8-tetrahydro-2,6-naphthyridine-4-carbonitrile hydrochloride], in the test on HPAC cells, the inhibition at 3 µM was no more than 25% and the inhibition at 10 µM was no more than 25%. In addition, in the test on AGS cells, the inhibition at 3 µM is no more than 25% and the inhibition at 10 µM is no more than 25%.

`C#Cc1cccc2cccc(N3CCc4c(N5[C@@H]6CC[C@H]5CNC6)nc(OCC56CCCN5CCC6)c(C#N)c4C3)c12` [Ex 12, 1-((1R,5S)-3,8-diazabicyclo[3.2.1]octan-8-yl)-6-(8-ethynylnaphthalen-1-yl)-3-((tetrahydro-1H-pyrrolizin-7a(5H)-yl)methoxy)-5,6,7,8-tetrahydro-2,6-naphthyridine-4-carbonitrile Hydrochloride]: the “% Inhibition of Cell Proliferation HPAC TC1” value in the test on HPAC cells (Hydrochloride) is recorded as “C (C = >50 to ≤75)”.

Take `CN1CCC[C@H]1COc1nc(N2CCNC(CC#N)C2)c2c(c1C#N)CN(c1cccc3cccc(Cl)c13)CC2` (stereo partly drawn) [Ex 3, 6-(8-chloronaphthalen-1-yl)-1-(3-(cyanomethyl)piperazin-1-yl)-3-(((S)-1-methylpyrrolidin-2-yl)methoxy)-5,6,7,8-tetrahydro-2,6-naphthyridine-4-carbonitrile hydrochloride]: in the test on AGS cells, the inhibition at 3 µM is 25 to 50% and the inhibition at 10 µM fell in the range of 75 to 100%.

In the test on HPAC cells, `CN1CCC[C@H]1COc1nc(N2[C@@H]3CC[C@H]2CNC3)c2c(c1C#N)CN(c1cccc3cccc(Br)c13)CC2` [Ex 10, 1-((1R,5S)-3,8-diazabicyclo[3.2.1]octan-8-yl)-6-(8-bromonaphthalen-1-yl)-3-(((S)-1-methylpyrrolidin-2-yl)methoxy)-5,6,7,8-tetrahydro-2,6-naphthyridine-4-carbonitrile Hydrochloride] had an inhibition at 3 µM of 75 to 100% and an inhibition at 10 µM of 75 to 100%.

In the case of `CN1CCC[C@H]1COc1nc(N2CC3CCC(C2)N3)c2c(c1C#N)CN(c1cc(O)cc3ccccc13)CC2` [Ex 1, 1-(3,8-diazabicyclo[3.2.1]octan-3-yl)-6-(3-hydroxynaphthalen-1-yl)-3-(((S)-1-methylpyrrolidin-2-yl)methoxy)-5,6,7,8-tetrahydro-2,6-naphthyridine-4-carbonitrile, hydrochloride], in the test with AGS cells, the inhibition at 3 µM is 25 to 50% and the inhibition at 10 µM was 75 to 100%.

Regarding `C[C@@H](OCc1ccccc1)[C@H](N)C(=O)N1CCN(c2nc(OC[C@@H]3CCCN3C)c(C#N)c3c2CCN(Cc2ccccc2)C3)CC1` [Ex 23, 6-benzyl-1-(4-(O-benzyl-L-threonyl)piperazin-1-yl)-3-(((S)-1-methylpyrrolidin-2-yl)methoxy)-5,6,7,8-tetrahydro-2,6-naphthyridine-4-carbonitrile Hydrochloride], in the test on HPAC cells, the inhibition at 3 µM was no more than 25% and the inhibition at 10 µM is 50 to 75%.

Take `N#Cc1c(OCC23CCCN2CCC3)nc(N2[C@@H]3CC[C@H]2CNC3)c2c1CN(c1cccc3cccc(Br)c13)CC2` [Ex 7, 1-((1R,5S)-3,8-diazabicyclo[3.2.1]octan-8-yl)-6-(8-bromonaphthalen-1-yl)-3-((tetrahydro-1H-pyrrolizin-7a(5H)-yl)methoxy)-5,6,7,8-tetrahydro-2,6-naphthyridine-4-carbonitrile TFA salt]: in the test with HPAC cells, the inhibition at 3 µM was 75 to 100% and the inhibition at 10 µM is 75 to 100%.

As a reminder, the inhibition is how much of the control response was suppressed. Higher therefore signals a strong effect.
